The record followed here is publication PMC12300231, “Ferroptosis Among the Antiproliferative Pathways Activated by a Lipophilic Ruthenium(III) Complex as a Candidate Drug for Triple-Negative Breast Cancer” (Pharmaceutics, 2025).

The subject of test [1] is MDA-MB-231 cells. The test can be described thus: Mitochondria morphological analysis by confocal microscopy (MitoTracker Red). The note with it: MDA-MB-231, 48 h, cDDP 10 µM or Erastin 10 µM, vs untreated cells. The test is classed as cell-based, Human. How it is done: Morphological changes in the mitochondria of MDA-MB-231 cells after treatments in vitro were determined using the MitoTracker Red CMXRos selective probe (Ex\Em 579/599 nm). Briefly, 1.5 × 10^4 cells were seeded in a four-well µ-Slide and incubated for 48 h. Then, cells were treated with the IC50 concentration of PalmiPyRu, cDDP (10 µM) or Erastin (10 µM), respectively, for a further 48 h. After incubations, cells were treated with FBS-free medium containing 100 nM MitoTracker at 37 °C for 20 min. To label the nuclei, a DAPI (Ex/Em 358/461 nm) solution (1:1000) was used at room temperature for 10 min of incubation. Fluorescence images were captured using a confocal microscope (Zeiss LSM 900 Airyscan 2) with a 63× magnification (oil-immersion objective).

Test [2] deals with HaCaT. Briefly: Cell survival index, biocompatibility on healthy cells. The settings on record: 48 h of incubation, mean ± SEM (n = 15). In kind it is cell-based, Human. How it is done:
The antiproliferative activity was evaluated by estimating a “cell survival index” through targeted bioscreens, which joins cell viability assessment (by the MTT functional assay) with automated cell count (quantitative assay by automatic cell counter). Specifically, the “cell survival index” is calculated as the arithmetic average between the percentage values derived from the MTT assay and automated cell counting. For in vitro treatments, TNBC cell lines (MDA-MB-231, Hs 578T and BT-549) were seeded into 96-well culture plates at a density of 10^4 cells/well and allowed to grow for 24 h. […]
(§1) The same experimental setup in vitro was applied to assess the biocompatibility of PalmiPyRu on healthy control cell lines (HDFas, HHFKs, HaCaTs and […]). Cell viability was measured using the MTT assay (Sigma, Milan, Italy), which evaluates mitochondrial redox capacity to convert dissolved MTT into insoluble purple formazan. […] Finally, absorbance was measured at 550 nm using a microplate reader (ThermoFisher, Waltham, MA, USA). Total cell counting was determined using the TC20 automated cell counter (Bio-Rad, Milan, Italy), which provides accurate and reproducible total cell counts and a live/dead ratio in a single step using a specific dye exclusion assay (Trypan Blue). […] The mixture was loaded into disposable slide chamber and analyzed. […]

Test [3] concerns HHFK. The description is as above. The test is classed as cell-based. The note with it: 48 h of incubation, mean ± SEM (n = 15). How it is done:
(§2) The antiproliferative activity was evaluated by estimating a “cell survival index” through targeted bioscreens, which joins cell viability assessment (by the MTT functional assay) with automated cell count (quantitative assay by automatic cell counter). Specifically, the “cell survival index” is calculated as the arithmetic average between the percentage values derived from the MTT assay and automated cell counting. For in vitro treatments, TNBC cell lines (MDA-MB-231, Hs 578T and BT-549) were seeded into 96-well culture plates at a density of 10^4 cells/well and allowed to grow for 24 h. The culture medium was then replaced with fresh medium, and the cells were treated with PalmiPyRu at concentrations ranging from 5 to 150 μM for different times, depending on the type of experiment. Cisplatin (cDDP) was used as a reference drug (positive control).
as §1, with “formazan. Briefly, after treatments, the medium was removed, and cells were incubated with 20 μL/well of MTT solution (5 mg/mL) for 1 h at 37 °C in a humidified 5% CO2 incubator.” for “formazan.”, “analyzed. The instrument provided a total cell count (cells/mL), live cell count and percent viability, automatically adjusting for dilution if Trypan Blue was detected.” for “analyzed.”
(§3) All subsequent in vitro experiments were performed using PalmiPyRu IC50 concentrations, calculated as previously described.

The test system of test [4] is MCF-10A. The description is as above. The note with it: MCF-10A healthy cells, 48 h of incubation, mean ± SEM (n = 15). The test is classed as cell-based. How it is done:
as §2
as §1, with “formazan. Briefly, after treatments, the medium was removed, and cells were incubated with 20 μL/well of MTT solution (5 mg/mL) for 1 h at 37 °C in a humidified 5% CO2 incubator.” for “formazan.”, “analyzed. The instrument provided a total cell count (cells/mL), live cell count and percent viability, automatically adjusting for dilution if Trypan Blue was detected.” for “analyzed.”
as §3

Test [5] deals with HDFa. The test is described as above. In kind it is cell-based. The note with it: 48 h of incubation, mean ± SEM (n = 15). How it is done:
as §2
as §1, with “formazan. Briefly, after treatments, the medium was removed, and cells were incubated with 20 μL/well of MTT solution (5 mg/mL) for 1 h at 37 °C in a humidified 5% CO2 incubator.” for “formazan.”, “analyzed. The instrument provided a total cell count (cells/mL), live cell count and percent viability, automatically adjusting for dilution if Trypan Blue was detected.” for “analyzed.”
as §3

Test [6] deals with BT-549. Briefly: Cell survival index (MTT assay plus automated cell count), IC50. In kind it is cell-based, Human. The settings on record: BT-549 TNBC cells, 48 h of incubation, mean ± SEM (n = 15). How it is done: as §2
as §1, with “formazan. Briefly, after treatments, the medium was removed, and cells were incubated with 20 μL/well of MTT solution (5 mg/mL) for 1 h at 37 °C in a humidified 5% CO2 incubator.” for “formazan.”, “analyzed. The instrument provided a total cell count (cells/mL), live cell count and percent viability, automatically adjusting for dilution if Trypan Blue was detected.” for “analyzed.”
as §3
On the technique in general: Tetrazolium dyes change colour on reduction, which living cells bring about.

Test [7] deals with Hs578T. The description is as above. The test is classed as cell-based, Human. The note with it: Hs578T TNBC cells, 48 h of incubation, mean ± SEM (n = 15). How it is done:
as §2
as §1, with “formazan. Briefly, after treatments, the medium was removed, and cells were incubated with 20 μL/well of MTT solution (5 mg/mL) for 1 h at 37 °C in a humidified 5% CO2 incubator.” for “formazan.”, “analyzed. The instrument provided a total cell count (cells/mL), live cell count and percent viability, automatically adjusting for dilution if Trypan Blue was detected.” for “analyzed.”
as §3

Test [8] concerns MDA-MB-231. Described as above. The test is classed as cell-based, Human. The settings on record: MDA-MB-231 TNBC cells, 48 h of incubation, mean ± SEM (n = 15). How it is done:
as §2
as §1, with “formazan. Briefly, after treatments, the medium was removed, and cells were incubated with 20 μL/well of MTT solution (5 mg/mL) for 1 h at 37 °C in a humidified 5% CO2 incubator.” for “formazan.”, “analyzed. The instrument provided a total cell count (cells/mL), live cell count and percent viability, automatically adjusting for dilution if Trypan Blue was detected.” for “analyzed.”
as §3

For the compound `CCOc1ccccc1-n1c(C(C)N2CCN(C(=O)COc3ccc(Cl)cc3)CC2)nc2ccccc2c1=O` (stereo not drawn) [Erastin], the “Mitochondrial red fluorescent signal (MitoTracker)” value in test [1] is recorded as “lowered the mitochondrial fluorescent signal”.
Usually IC50 stands for the concentration at which inhibition is half-maximal. As for `[NH2][Pt]([NH2])([Cl])[Cl]` [cDDP, cisplatin], in test [1], the “Mitochondrial red fluorescent signal (MitoTracker)” value is “significantly reduced”. Moreover, the IC50 was 50 ± 3 µM in test [2]; 93 ± 3 µM in test [3]; 88 ± 3 µM in test [4]; 72 ± 4 µM in test [5]; 15 ± 2 µM in test [6]; 20 ± 4 µM in test [7]. Moreover, the IC50 in test [8] worked out at 11 ± 3 µM.
